Data published in publication PMC11800497, “Antifungal activity and biocompatibility assessment with molecular docking and dynamic simulations of new pyrazole derivatives” (BMC Biotechnology, 2025).
Where two headings read alike, the source gives them in different places. Marks after values point to notes of the source that are not given here.

How the values were obtained:
Experiment in all cases: Well-diffusion antifungal activity
[1] = tested on: R. oryzae ATCC 96382; type: cell-based, Rhizopus oryzae; settings: Rhizopus arrhizus, read-out: IZD
Protocol: (§1) This study investigated strains of four distinct fungal pathogens: Aspergillus flavus ATCC 9643, A. niger ATCC 11414, Rhizopus oryzae ATCC 96382, and Penicillium chrysogenum ATCC 10106. Every strain was acquired from the Dep. of Micro. Fac. Agric., […] Uni., in Egypt. Initially kept and preserved in malt agar medium at 4 °C, the pathogens were then grown overnight at 28 °C in malt broth medium to evaluate the antifungal activity. Fungal pathogen standard inoculum was prepared by following the procedure described by. To assess the antifungal activity, the pathogens were first maintained and stored at 4 °C in malt agar medium. They were then cultured in malt broth medium for a whole night at 28 °C. According to [22], the well-diffusion technique was used to test the antifungal activity. This included using a 9.0 mm cork borer that had been sterilized to create wells in the malt agar layer. […] After adding 1000 μg/ml of control pyrazole compounds and the standard antifungal (Fluconazole 1000 μg/ml) to each well, the petri dishes were incubated at 28 °C for 72 h. The diameter of the standard reference antifungal was compared to the millimeters measurements of the inhibitory zones. The formula according to [22] was utilized to compute the activity index (AI).1 [drawing 1]

[2] = tested on: A. niger ATCC 11414; type: cell-based, Aspergillus niger; settings: for zone of inhibition at 1000 µg/mL: Aspergillus niger, read-out: IZD; for AI (activity index): relative to Fluconazole 1000 µg/ml
Protocol: This study investigated strains of four distinct fungal pathogens: Aspergillus flavus ATCC 9643, A. niger ATCC 11414, Rhizopus oryzae ATCC 96382, and Penicillium chrysogenum ATCC 10106. Every strain was acquired from the Dep. of Micro. Fac. Agric., […] Uni., in Egypt. Initially kept and preserved in malt agar medium at 4 °C, the pathogens were then grown overnight at 28 °C in malt broth medium to evaluate the antifungal activity. Fungal pathogen standard inoculum was prepared by following the procedure described by [19, 20]. To assess the antifungal activity, the pathogens were first maintained and stored at 4 °C in malt agar medium. They were then cultured in malt broth medium for a whole night at 28 °C. According to [22], the well-diffusion technique was used to test the antifungal activity. This included using a 9.0 mm cork borer that had been sterilized to create wells in the malt agar layer. […] After adding 1000 μg/ml of control pyrazole compounds and the standard antifungal (Fluconazole 1000 μg/ml) to each well, the petri dishes were incubated at 28 °C for 72 h. The diameter of the standard reference antifungal was compared to the millimeters measurements of the inhibitory zones. The formula according to [22] was utilized to compute the activity index (AI).1 [drawing 1]

[3] = tested on: P. chrysogenum ATCC 10106; type: cell-based, Penicillium chrysogenum; settings: for zone of inhibition at 1000 µg/mL: Penicillium chrysogenum, read-out: IZD; for AI (activity index): relative to Fluconazole 1000 µg/ml
Protocol: as §1

[4] = tested on: A. flavus ATCC 9643; type: cell-based, Aspergillus flavus; settings: for zone of inhibition at 1000 µg/mL: Aspergillus flavus, read-out: IZD
Protocol: as §1

[5] = ATCC96382, 1000 µg/ml, 72 h, 28 °C
[6] = ATCC11414, 1000 µg/ml, 72 h, 28 °C
[7] = ATCC10106, 1000 µg/ml, 72 h, 28 °C
[8] = ATCC9643, 1000 µg/ml, 72 h, 28 °C

Compound	zone of inhibition at 1000 µg/mL [1, 5]	zone of inhibition at 1000 µg/mL [2, 6]	zone of inhibition at 1000 µg/mL [3, 7]	zone of inhibition at 1000 µg/mL [4, 8]	zone of inhibition at 1000 µg/mL ([1]; ATCC96382, 72 h)	zone of inhibition at 1000 µg/mL ([2]; ATCC11414, 72 h)	zone of inhibition at 1000 µg/mL ([3]; ATCC10106, 72 h)	zone of inhibition at 1000 µg/mL ([4]; ATCC9643, 72 h)	IZD ([2]; 1000 µg/ml, 72 h, 28 °C)	AI (activity index) ([2]; 1000 µg/ml)	IZD ([4]; 1000 µg/ml, 72 h, 28 °C)	IZD ([3]; 1000 µg/ml, 72 h, 28 °C)	AI (activity index) ([3]; 1000 µg/ml)
CN(C)/C=C(\C#N)C(=O)N/N=C/c1cn(-c2ccccc2)nc1-c1ccccc1 [compound 11]	0 mm	0 mm	0 mm	0 mm									
Cc1ccc(NC(=O)/C(C#N)=C/c2cn(-c3ccccc3)nc2-c2ccccc2)cc1 [3a]	0 mm	0 mm	0 mm	0 mm									
N#C/C(=C\c1cn(-c2ccccc2)nc1-c1ccccc1)C(=O)Nc1ccc(Br)cc1 [3c]	0 mm	0 mm	0 mm	0 mm									
O=Cc1cn(-c2ccccc2)nc1-c1ccccc1 [compound 1, 1,3-diphenyl-1H-pyrazole-4-carbaldehyde]					0 mm	0 mm	0 mm	0 mm					
CN(C)C=C1C(=O)NN=C(c2cn(-c3ccccc3)nc2-c2ccccc2)C1=O [compound 12]	0 mm	25 mm	0 mm	23 mm					25 ± 0.08^f mm	0.78	23 ± 0.02^d mm		
OC(Cn1cncn1)(Cn1cncn1)c1ccc(F)cc1F [Fluconazole, reference compound]	20.99 ± 0.05 mm	32 ± 0.2 mm	23.1 ± 0.06 mm	30.02 ± 0.05 mm									
Cc1ccc(N=Nc2ccc3oc(=O)c(C(=O)NN=Cc4cn(-c5ccccc5)nc4-c4ccccc4)cc3c2)cc1 [10b]	0 mm	28 mm	20 mm	0 mm					28 ± 0.12^c mm	0.87		20 ± 0.13^e mm	0.87
N#Cc1c(-c2cn(-c3ccccc3)nc2-c2ccccc2)[nH][nH]c1=O [compound 7]	0 mm	0 mm	13 ± 0.11 mm	0 mm									0.56
O=C(NN=Cc1cn(-c2ccccc2)nc1-c1ccccc1)c1cc2ccccc2oc1=O [10a]	0 mm	0 mm	0 mm	0 mm									
N#C/C(=C\c1cn(-c2ccccc2)nc1-c1ccccc1)C(=O)Nc1ccc([N+](=O)[O-])cc1 [3f]	0 mm	0 mm	0 mm	0 mm									
N#C/C(=C\c1cn(-c2ccccc2)nc1-c1ccccc1)C(=O)Nc1ccc(Cl)cc1 [3d]	0 mm	0 mm	0 mm	0 mm									
N#CCC(=O)NN=Cc1cn(-c2ccccc2)nc1-c1ccccc1 [compound 8]	0 mm	0 mm	0 mm	0 mm									
N#C/C(=C\c1cn(-c2ccccc2)nc1-c1ccccc1)C(=O)Nc1ccc(C(=O)O)cc1 [3e]	0 mm	0 mm	0 mm	0 mm									
O=C1OC(=O)c2c(Br)c(Br)c(Br)c(Br)c21 [compound 5, 4,5,6,7 tetrabromoisobenzofuran-1,3-dione]	0 mm	0 mm	0 mm	0 mm									
N#C/C(=C\c1cn(-c2ccccc2)nc1-c1ccccc1)C(=O)Nc1nccs1 [3g]	0 mm	18 ± 0.77 mm	0 mm	0 mm						0.56			
N#C/C(=C\c1cn(-c2ccccc2)nc1-c1ccccc1)C(=O)Nc1nc2ccccc2s1 [3h]	0 mm	0 mm	15 ± 0.25 mm	0 mm									0.65
